pIC50: −log10 of the molar value. Like-named read-outs stand apart in the source and are kept apart here. Where only a bound is given, the exact number is not on record here.

The target in experiment [1] is recombinant human NF-kappaB-inducing kinase (NIK/MAP3K14) (Homo sapiens (Human), UniProt Q99558). The experiment can be described thus: Inhibition of auto-phosphorylation of recombinant human NIK/MAP3K14 (AlphaScreen). In kind it is biochemical. The settings on record: NIK auto-phosphorylation, 5 μM ATP, 1 nM NIK, 2 h at 25° C.; average of values. An outline of the steps:
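GST-tagged NIK (1 nM) auto-phosphorylated with 5 μM ATP for 2 h at 25° C. in 50 mM Tris pH 7.5, 5 mM MgCl2, 1 mM EGTA, 1 mM DTT, 0.1 mM Na3VO4, 0.01% Tween 20 (0.7% DMSO). Detected by AlphaScreen via anti-phospho-IKK Ser176/180 antibody; IC50 from sigmoidal fit of % inhibition versus log concentration.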

In experiment [2] the test system is p-IKKα levels in L363 (NIK translocated multiple myeloma) cells. The experiment can be described thus: Effect of compounds on p-IKKα levels in L363 cells (AlphaLISA SureFire Ultra). In kind it is cell-based, human. The conditions noted are these: BAFF stimulated, MG132, 6 h, average of values, read-out: Assay 2 IC50. An outline of the steps: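 Inhibition of p-IKKα (Ser176/180) read by AlphaLISA after 6 h, 37 °C compound exposure (11-point 1:3 series, 0.3% DMSO) of L363 cells pre-incubated overnight ± 250 ng/ml BAFF and plated ± BAFF ± 10 μM MG132. Normalised to BAFF/MG132/DMSO and unstimulated controls; IC50 by sigmoidal fitting, duplicates.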
On the technique in general: Alpha assays give light when donor and acceptor beads are brought close together.

recombinant human NF-kappaB-inducing kinase (NIK/MAP3K14), sequence (Q99558 whole entry): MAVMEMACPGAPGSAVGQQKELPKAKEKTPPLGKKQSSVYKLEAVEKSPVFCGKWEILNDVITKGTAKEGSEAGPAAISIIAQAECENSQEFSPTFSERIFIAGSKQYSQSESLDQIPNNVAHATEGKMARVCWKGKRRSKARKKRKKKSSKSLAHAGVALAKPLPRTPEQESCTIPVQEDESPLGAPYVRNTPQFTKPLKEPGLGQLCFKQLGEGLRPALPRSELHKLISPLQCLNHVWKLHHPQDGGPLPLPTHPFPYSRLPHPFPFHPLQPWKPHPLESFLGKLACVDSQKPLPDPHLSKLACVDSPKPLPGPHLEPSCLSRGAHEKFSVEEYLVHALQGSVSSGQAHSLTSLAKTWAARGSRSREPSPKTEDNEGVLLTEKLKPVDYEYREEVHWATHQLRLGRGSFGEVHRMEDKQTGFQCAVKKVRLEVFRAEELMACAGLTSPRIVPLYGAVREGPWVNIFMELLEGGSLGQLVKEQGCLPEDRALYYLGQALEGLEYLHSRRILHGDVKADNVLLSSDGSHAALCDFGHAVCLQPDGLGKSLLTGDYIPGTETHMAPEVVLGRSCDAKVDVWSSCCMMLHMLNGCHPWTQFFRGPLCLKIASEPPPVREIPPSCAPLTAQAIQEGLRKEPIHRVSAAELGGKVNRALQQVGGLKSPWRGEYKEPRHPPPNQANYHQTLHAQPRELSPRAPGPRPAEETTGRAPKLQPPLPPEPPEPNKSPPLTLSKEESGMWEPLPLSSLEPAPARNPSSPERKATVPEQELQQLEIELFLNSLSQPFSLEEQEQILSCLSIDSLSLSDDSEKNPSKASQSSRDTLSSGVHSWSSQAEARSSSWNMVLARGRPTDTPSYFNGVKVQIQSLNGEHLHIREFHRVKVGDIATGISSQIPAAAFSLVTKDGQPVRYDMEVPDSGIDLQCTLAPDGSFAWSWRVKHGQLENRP

As a reminder, the pIC50 is −log10 of the IC50, conventionally taken in molar units. Regarding `CN1CC[C@@](O)(C#Cc2cccc(-c3ncc4c(I)cnc(N)c4n3)c2)C1=O` [Example 102, (R)-3-((3-(8-Amino-5-iodopyrido[3,4-d]pyrimidin-2-yl)phenyl)ethynyl)-3-hydroxy-1-methylpyrrolidin-2-one], the pIC50 in experiment [1] was at least 9.30; in experiment [2] (Homo sapiens, L-363, 6 h), 7.96.
Turning to `CN1CC[C@@](O)(C#Cc2cccc(-c3ncc4c(CN5CCCCC5)cnc(N)c4n3)c2)C1=O` [Example 145, (R)-3-[2-[3-[8-Amino-5-(1-piperidylmethyl)pyrido[3,4-d]pyrimidin-2-yl]phenyl]ethynyl]-3-hydroxy-1-methyl-pyrrolidin-2-one], the pIC50 in experiment [1] is 8.44; in experiment [2] (Homo sapiens, L-363, 6 h) it was 6.55.
The like results for `CN1CC[C@@](O)(C#Cc2cccc(-c3cc(NC4CC4)c4ncnc(N)c4n3)c2)C1=O` [Example 298, (R)-3-[2-[3-[4-Amino-8-(cyclopropylamino)pyrido[3,2-d]pyrimidin-6-yl]phenyl]ethynyl]-3-hydroxy-1-methyl-pyrrolidin-2-one] were, in that order, 9.10 and 7.62.
On the same counts, the results for `CN1CC[C@@](O)(C#Cc2cccc(-c3nc(N(C)C)c4ccnc(N)c4n3)c2)C1=O` [Example 58, (R)-3-((3-(8-Amino-4-(dimethylamino)pyrido[3,4-d]pyrimidin-2-yl)phenyl)ethynyl)-3-hydroxy-1-methylpyrrolidin-2-one] are 9.15 and 7.82.
Turning to `CN1CC[C@@](O)(C#Cc2cccc(-c3ccc4ccnc(N5CCC5)c4c3)c2)C1=O` [Example 234, (R)-3-((3-(1-(Azetidin-1-yl)isoquinolin-7-yl)phenyl)ethynyl)-3-hydroxy-1-methylpyrrolidin-2-one], the pIC50 in experiment [1] is 5.74; in experiment [2] (Homo sapiens, L-363, 6 h), below 5.30.
With `[2H]c1nc(N)c2nc(-c3cccc(C#C[C@]4(O)CCN(C)C4=O)c3)cc(C(C)C)c2n1` [Example 283, (R)-3-((3-(4-Amino-8-isopropylpyrido[3,2-d]pyrimidin-6-yl-2-d)phenyl)ethynyl)-3-hydroxy-1-methylpyrrolidin-2-one], the pIC50 in experiment [1] is 9.22; in experiment [2] (Homo sapiens, L-363, 6 h), 8.85.
Consider `Cc1ccc(C#C[C@]2(O)CCN(C)C2=O)cc1-c1ncc2c(C)cnc(N)c2n1` [Example 65, (R)-3-[2-[3-(8-Amino-5-methyl-pyrido[3,4-d]pyrimidin-2-yl)-4-methyl-phenyl]ethynyl]-3-hydroxy-1-methyl-pyrrolidin-2-one], for which the pIC50 was 9.00 in experiment [1] and 7.32 in experiment [2] (Homo sapiens, L-363, 6 h).
The like results for `Cc1cnc(N)c2nc(-c3cccc(C#C[C@@](C)(O)c4nccs4)c3)ncc12` [Example 50, (R)-4-(3-(8-Amino-5-methylpyrido[3,4-d]pyrimidin-2-yl)phenyl)-2-(thiazol-2-yl)but-3-yn-2-ol] were, in that order, at least 9.30 and 7.77.
On the same counts, the results for `Nc1ncnc2cnc(-c3cccc(C#C[C@]4(O)CCn5ccnc54)c3)nc12` [Example 146, (R)-7-[2-[3-(4-Aminopyrimido[5,4-d]pyrimidin-6-yl)phenyl]ethynyl]-5,6-dihydropyrrolo[1,2-a]imidazol-7-ol] are at least 9.30 and 8.57.
The like results for `CN1CC[C@@](O)(C#Cc2cccc(-c3cc(F)c4ncnc(N)c4c3)c2)C1=O` [Example 113, (R)-3-[2-[3-(4-Amino-8-fluoro-quinazolin-6-yl)phenyl]ethynyl]-3-hydroxy-1-methyl-pyrrolidin-2-one] were, in that order, at least 9.30 and 7.04.
As for `Cc1nc(N)c2nc(-c3cc(C#C[C@]4(O)CCN(C)C4=O)ccc3C)ccc2n1` [Example 150, (R)-3-((3-(4-Amino-2-methylpyrido[3,2-d]pyrimidin-6-yl)-4-methylphenyl)ethynyl)-3-hydroxy-1-methylpyrrolidin-2-one], the pIC50 in experiment [1] is 8.33; in experiment [2] (Homo sapiens, L-363, 6 h) it was 6.49.
With `Nc1ncnc2cnc(-c3cccc(C#C[C@]4(O)CCc5cccnc54)c3)nc12` [Example 144, (R)-7-((3-(8-Aminopyrimido[5,4-d]pyrimidin-2-yl)phenyl)ethynyl)-6,7-dihydro-5H-cyclopenta[b]pyridin-7-ol], the pIC50 was 5.64 in experiment [1] and below 5.30 in experiment [2] (Homo sapiens, L-363, 6 h).
The like results for `CN1CC[C@@](O)(C#Cc2cccc(-c3ncc4ncnc(N)c4n3)c2)C1=O` [Example 13, (R)-3-[2-[3-(4-Aminopyrimido[5,4-d]pyrimidin-6-yl)phenyl]ethynyl]-3-hydroxy-1-methyl-pyrrolidin-2-one] were, in that order, at least 9.30 and 8.55.
On the same counts, the results for `CN1CC[C@@](O)(C#Cc2cccc(-c3nc4c(N)ncnc4n3C)c2)C1=O` [Example 143, (R)-3-((3-(6-Amino-9-methyl-9H-purin-8-yl)phenyl)ethynyl)-3-hydroxy-1-methylpyrrolidin-2-one] are 6.38 and below 5.30.
In the case of `CN1CC[C@@](O)(C#Cc2cccc(-c3cc(C4CCN4)c4ncnc(N)c4n3)c2)C1=O` (stereo partly drawn) [Example 313, (3R)-3-((3-(4-Amino-8-(azetidin-2-yl)pyrido[3,2-d]pyrimidin-6-yl-2-d)phenyl)ethynyl)-3-hydroxy-1-methylpyrrolidin-2-one], the pIC50 is 8.51 in experiment [1] and 6.64 in experiment [2].
With `CN1CC[C@](O)(C#Cc2cccc(-c3cc(Br)c4ncnc(N)c4n3)c2)C1=O` [Example 254, (S)-3-((3-(4-Amino-8-bromopyrido[3,2-d]pyrimidin-6-yl)phenyl)ethynyl)-3-hydroxy-1-methylpyrrolidin-2-one], the pIC50 in experiment [1] was 6.64; in experiment [2] (Homo sapiens, L-363, 6 h), 5.88.
On the same counts, the results for `Nc1nccc2c(C(F)(F)F)nc(-c3cccc(C#C[C@]4(O)CCc5cccnc54)c3)nc12` [Example 61, (R)-7-((3-(8-Amino-4-(trifluoromethyl)pyrido[3,4-d]pyrimidin-2-yl)phenyl)ethynyl)-6,7-dihydro-5H-cyclopenta[b]pyridin-7-ol] are 8.40 and 6.77.
On the same counts, the results for `CNC(=O)C1CN(c2ncnc3ccc(-c4cccc(C#C[C@]5(O)CCN(C)C5=O)c4)nc23)C1` [Example 246, (R)-1-(6-(3-((3-Hydroxy-1-methyl-2-oxopyrrolidin-3-yl)ethynyl)phenyl)pyrido[3,2-d]pyrimidin-4-yl)-N-methylazetidine-3-carboxamide] are 7.64 and 5.42.
On the same counts, the results for `[2H]c1nc(N)c2nc(-c3cccc(C#C[C@]4(O)CCN(C)C4=O)c3)cc(CN)c2n1` [Example 282, (R)-3-((3-(4-Amino-8-(aminomethyl)pyrido[3,2-d]pyrimidin-6-yl-2-d)phenyl)ethynyl)-3-hydroxy-1-methylpyrrolidin-2-one] are 8.25 and 6.69.
Regarding `CN1CC[C@@](O)(C#Cc2cccc(-c3cc4c(N)ncnc4cn3)c2)C1=O` [Example 111, (R)-3-[2-[3-(4-Aminopyrido[3,4-d]pyrimidin-6-yl)phenyl]ethynyl]-3-hydroxy-1-methyl-pyrrolidin-2-one], the pIC50 was 8.92 in experiment [1] and 6.80 in experiment [2] (Homo sapiens, L-363, 6 h).
The like results for `Cc1c(C#C[C@]2(O)CCN(C)C2=O)cccc1-c1nc2c(N)ncnc2s1` [Example 154, (R)-3-((3-(7-Aminothiazolo[5,4-d]pyrimidin-2-yl)-2-methylphenyl)ethynyl)-3-hydroxy-1-methylpyrrolidin-2-one] were, in that order, 6.21 and below 5.30.
